As usually defined, the IC50 is the concentration that gives 50% inhibition.

Read-outs that look alike come from different tables or passages of the source.

Assay [1] has as its system human multiple myeloma cell line, OPM-2. As to the kind of experiment: Cell viability assay (OPM-2 10 FBS), CellTiter-Glo. Type of assay: cell-based. The gist of the method:
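3000 cells/well, RPMI 1640 + 10% FBS; serial compound dilutions, 16 h, 37 °C/5% CO2.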

Assay [2] has as its target recombinant human Mcl-1 (residues 171-327) / Bim interaction (Homo sapiens (Human), UniProt Q07820). As to the kind of experiment: biochemical. The note with it: read-out: Mcl-1 HTRF IC50. Type of assay: binding. In general terms: In TR-FRET formats the signal depends on donor and acceptor labels being close together.
Procedure: The inhibition of the Mcl-1/Bim interaction was measured using a time-resolved fluorescence resonance energy transfer (TR-FRET) assay. […] The TR-FRET assay was conducted in a 384-well white OptiPlate™ (PerkinElmer, Waltham, Mass.) in a total volume of 40 μL. The reaction mixture contained 0.1 nM Mcl-1(171-327), 0.05 nM biotin-Bim (51-76), 0.05 nM LANCE® Eu-W1024 Anti-6×His (PerkinElmer), 0.072 nM Streptavidin-Xlent (Cisbio, Bedford, Mass.), and serially diluted test compounds in the binding buffer of 20 mM Hepes, pH 7.5, 150 mM NaCl, 0.016 mM Brij®35, and 1 mM dithiothreitol. Test compounds were pre-incubated with Mcl-1(171-327) and biotin-Bim (51-76) for 60 min before addition of the detection mixture (LANCE® Eu-W1024 Anti-6×His and Streptavidin-Xlent). The reaction plates were further incubated overnight and then were read on an Envision® multimode reader (PerkinElmer). Fluorescence signals were measured at 620 nm (40-nm bandwidth) and 665 nm (7.5-nm bandwidth) with a 60 is delay after excitation at 320 nm (75-nm bandwidth). The signal ratio at 665/620 nm corresponded to the Mcl-1/Bim interaction and was used in all data analyses. The IC50 values of test compounds were determined from duplicate data by analyzing competition curves using a four-parameter sigmoidal model in GraphPad Prism (GraphPad Software, San Diego, Calif.) or in Genedata Screener® (Genedata, Basel, Switzerland).
Setting [3] is: Homo sapiens, OPM-2, 16 h, read-out: OPM-2 10% FBS IC50 IP, OPM-2 cells, 10% FBS, 16 h incubation.
[4] abbreviates: 0.1 nM Mcl-1(171-327), 0.05 nM biotin-Bim (51-76).
Where [5] appears, read: Homo sapiens, OPM-2, 16 h, read-out: OPM-2 10% FBS IC50 IP, OPM-2 cells, 10% FBS, 16 h, CellTiter-Glo.
The mark [6] stands for this setting: TR-FRET, Mcl-1(171-327) / biotin-Bim (51-76).

Chain of recombinant human Mcl-1 (residues 171-327) / Bim interaction (Q07820 171-327): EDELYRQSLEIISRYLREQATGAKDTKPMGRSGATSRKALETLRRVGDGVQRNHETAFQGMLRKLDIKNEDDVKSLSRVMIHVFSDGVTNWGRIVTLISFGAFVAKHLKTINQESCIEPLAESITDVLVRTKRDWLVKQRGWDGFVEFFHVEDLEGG

Turning to `CCO[C@@]1(CN2CCN3CCCC[C@@H]3C2)/C=C/CC[C@@H](CC)S(=O)(=O)NC(=O)c2ccc3c(c2)N(C[C@@H]2CC[C@H]21)C[C@@]1(CCCc2cc(Cl)ccc21)CO3` [Example 43, (1S,3′R,6′R,7′S,8′E,12′R)-6-chloro-7′-ethoxy-12′-ethyl-7′-((9aR)-octahydro-2H-pyrido[1,2-a]pyrazin-2-ylmethyl)-3,4-dihydro-2H,15′H-spiro[naphthalene-1,22′-[20]oxa[13]thia[1,14]diazatetracyclo [14.7.2.0~3,6~.0~19,24~]pentacosa[8,16,18,24]tetraen]-15′-one 13′,13′-dioxide], the IC50 in assay [1] (setting [3]) amounted to 888 nM; in assay [2] (setting [4]) it was 1.64 nM.
In the case of `CCC[C@]1(OC)/C=C/C[C@H](C)[C@@H](C)S(=O)(=O)NC(=O)c2ccc3c(c2)N(C[C@@H]2CC[C@H]21)C[C@@]1(CCCc2cc(Cl)ccc21)CO3` [Example 100236, (1S,3′R,6′R,7′S,8′E,11′S,12′R)-6-chloro-7′-methoxy-11′,12′-dimethyl-7′-propyl-3,4-dihydro-2H,15′H-spiro[naphthalene-1,22′-[20]oxa[13]thia[1,14]diazatetracyclo [14.7.2.0~3,6~.0~19,24~]pentacosa[8,16,18,24]tetraen]-15′-one 13′,13′-dioxide], the results for the IC50 in assay [1] (setting [5]) and in assay [2] (setting [6]) were 933 nM and 1.1 nM, respectively.
In the case of `CO[C@]1(CN2CCN3C[C@H](C)OC[C@@H]3C2)/C=C/C[C@H](C)[C@@H](C)S(=O)(=O)NC(=O)c2ccc3c(c2)N(C[C@@H]2CC[C@H]21)C[C@@]1(CCCc2cc(Cl)ccc21)CO3` [Example 146, (1S,3′R,6′R,7′R,8′E,11′S,12′R)-6-chloro-7′-methoxy-11′,12′-dimethyl-7′-(((3S,9aS)-3-methylhexahydropyrazino[2,1-c][1,4]oxazin-8(1H)-yl)methyl)-3,4-dihydro-2H,15′H-spiro[naphthalene-1,22′-[20]oxa[13]thia[1,14]diazatetracyclo [14.7.2.0~3,6~.0~19,24~]pentacosa[8,16,18,24]tetraen]-15′-one 13′,13′-dioxide], the results for the IC50 in assay [1] (setting [3]) and in assay [2] (setting [4]) were 150 nM and 0.337 nM, respectively.
On to `CO[C@@]1(C)/C=C/C[C@H](C)[C@@H](CCN2CCOCC2)S(=O)(=O)NC(=O)c2ccc3c(c2)N(C[C@@H]2CC[C@H]21)C[C@@]1(CCCc2cc(Cl)ccc21)CO3` (single isomer, unassigned) [Example 100599], for which the IC50 in assay [1] (read-out: OPM-2 10% FBS IC50 IP, OPM-2 cells, 10% FBS, 16 h, CellTiter-Glo) was 1140 nM; in assay [2] (setting [6]), 1.15 nM.
For the molecule `CO[C@@]1(CN2CCN3CCCC[C@@H]3C2)/C=C/C[C@H](C)[C@@H](CC2CCC2)S(=O)(=O)NC(=O)c2ccc3c(c2)N(C[C@@H]2CC[C@H]21)C[C@@]1(CCCc2cc(Cl)ccc21)CO3` [Example 41, (1S,3′R,6′R,7′S,8′E,11′S,12′R)-6-chloro-12′-(cyclobutylmethyl)-7′-methoxy-11′-methyl-7′-((9aR)-octahydro-2H-pyrido[1,2-a]pyrazin-2-ylmethyl)-3,4-dihydro-2H,15′H-spiro[naphthalene-1,22′-[20]oxa[13]thia[1,14]diazatetracyclo [14.7.2.0~3,6~.0~19,24~]pentacosa[8,16,18,24]tetraen]-15′-one 13′,13′-dioxide], the IC50 amounted to 810 nM in assay [1] (setting [3]) and 0.642 nM in assay [2] (setting [4]).
For `CO[C@]1(CN2CCN3C(=O)[C@@H](C)OC[C@@H]3C2)/C=C/C[C@H](C)[C@@H](C)S(=O)(=O)NC(=O)c2ccc3c(c2)N(C[C@@H]2CC[C@H]21)C[C@@]1(CCCc2cc(Cl)ccc21)CO3` [Example 144, (1S,3′R,6′R,7′R,8′E,11′S,12′R)-6-chloro-7′-methoxy-11′,12′-dimethyl-7′-(((3R,9aS)-3-methyl-4-oxohexahydropyrazino[2,1-c][1,4]oxazin-8(1H)-yl)methyl)-3,4-dihydro-2H,15′H-spiro[naphthalene-1,22′-[20]oxa[13]thia[1,14]diazatetracyclo [14.7.2.0~3,6~.0~19,24~]pentacosa[8,16,18,24]tetraen]-15′-one 13′,13′-dioxide] the same measures were 163 nM and 0.271 nM.
For the molecule `CO[C@@]1(CC(=O)N2CCCC2)/C=C/C[C@H](C)[C@@H](C)S(=O)(=O)NC(=O)c2ccc3c(c2)N(C[C@@H]2CC[C@H]21)C[C@@]1(CCCc2cc(Cl)ccc21)CO3` [Example 100010, (1 S,3′R,6′R,7′S,8′E,11′S, 12′R)-6-chloro-7′-methoxy-11′,12′-dimethyl-7′-(2-oxo-2-(1-pyrrolidinyl)ethyl)-3,4-dihydro-2H, 15′H-spiro[naphthalene-1,22′-[20]oxa[13]thia[1,14]diazatetracyclo[14.7.2.0-3,6˜.0˜19,24˜]pentacosa[8,16,18,24]tetraen]-15′-one 13′,13′-dioxide], the IC50 was 142 nM in assay [1] (setting [5]) and 0.077 nM in assay [2] (setting [6]).
For `C[C@@H]1[C@@H](C)CCCC2(CN(S(C)(=O)=O)CCO2)[C@@H]2CC[C@H]2CN2C[C@@]3(CCCc4cc(Cl)ccc43)COc3ccc(cc32)C(=O)NS1(=O)=O` (some centres unmarked) [Example 466], the half-inhibitory concentration (IC50) was 446 nM in assay [1] (read-out: OPM-2 10% FBS IC50 IP, OPM-2 cells, 10% FBS, 16 h incubation) and 0.9 nM in assay [2] (setting [4]).
On to `C[C@@H]1[C@@H](C)CCC[C@](O)(CCN(C)C)[C@@H]2CC[C@H]2CN2C[C@@]3(CCCc4cc(Cl)ccc43)COc3ccc(cc32)C(=O)NS1(=O)=O` [Example 100088, (1S,3′R,6′R,7′S,11′S,12′R)-6-chloro-7′-(2-(dimethylamino)ethyl)-7′-hydroxy-11′,12′-dimethyl-3,4-dihydro-2H,15′H-spiro[naphthalene-1,22′-[20]oxa[13]thia[1,14]diazatetracyclo [14.7.2.0~3,6~.0~19,24~]pentacosa[16,18,24]trien]-15′-one 13′,13′-dioxide], for which the IC50 in assay [1] (setting [5]) was found to be 1340 nM; in assay [2] (setting [6]), 2.12 nM.
Consider `CO[C@]1(Cc2cc(C)on2)/C=C/C[C@H](C)[C@@H](C)S(=O)(=O)NC(=O)c2ccc3c(c2)N(C[C@@H]2CC[C@H]21)C[C@@]1(CCCc2cc(Cl)ccc21)CO3` [Example 100548, (1S,3′R,6′R,7′R,8′E,11′S,12′R)-6-chloro-7′-methoxy-11′,12′-dimethyl-7′-((5-methyl-1,2-oxazol-3-yl)methyl)-3,4-dihydro-2H,15′H-spiro[naphthalene-1,22′-[20]oxa[13]thia[1,14]diazatetracyclo [14.7.2.0~3,6~.0~19,24~]pentacosa[8,16,18,24]tetraen]-15′-one 13′,13′-dioxide], for which the IC50 in assay [1] (setting [5]) was determined as 8410 nM; in assay [2] (setting [6]) it was 0.064 nM.
For `COC(OC)c1cncc([C@]2(OC)/C=C/C[C@H](C)[C@@H](C)S(=O)(=O)NC(=O)c3ccc4c(c3)N(C[C@@H]3CC[C@H]32)C[C@@]2(CCCc3cc(Cl)ccc32)CO4)c1` (single isomer, unassigned) [Example 100514] the same measures were 231 nM and 0.088 nM.
Turning to `CNC(=O)C[C@]1(OC)/C=C/C[C@H](C)[C@@H](C)S(=O)(=O)NC(=O)c2ccc3c(c2)N(C[C@@H]2CC[C@H]21)C[C@@]1(CCCc2cc(Cl)ccc21)CO3` [Example 100009, 2-((1 S,3′R,6′R,7′S,8′E,11′S, 12′R)-6-chloro-7′-methoxy-11′,12′-dimethyl-13′,13′-dioxido-15′-oxo-3,4-dihydro-2H-spiro[naphthalene-1,22′-[20]oxa[13]thia[1,14]diazatetracyclo[14.7.2.0-3,6˜.0˜19,24˜]pentacosa[8,16,18,24]tetraen]-7′-yl)-N-methylacetamide], the results for the IC50 in assay [1] (setting [5]) and in assay [2] (setting [6]) were 216 nM and 0.128 nM, respectively.
For `CO[C@@]1(Cc2cc(C)on2)/C=C/C[C@H](C)[C@@H](C)S(=O)(=O)NC(=O)c2ccc3c(c2)N(C[C@@H]2CC[C@H]21)C[C@@]1(CCCc2cc(Cl)ccc21)CO3` [Example 100552, (1S,3′R,6′R,7′S,8′E,11′S,12′R)-6-chloro-7′-methoxy-11′,12′-dimethyl-7′-((5-methyl-1,2-oxazol-3-yl)methyl)-3,4-dihydro-2H,15′H-spiro[naphthalene-1,22′-[20]oxa[13]thia[1,14]diazatetracyclo [14.7.2.0~3,6~.0~19,24~]pentacosa[8,16,18,24]tetraen]-15′-one 13′,13′-dioxide] the same measures were 957 nM and 0.065 nM.
On to `CC[C@]1(CO)/C=C/C[C@H](C)[C@@H](C)S(=O)(=O)NC(=O)c2ccc3c(c2)N(C[C@@H]2CC[C@H]21)C[C@@]1(CCCc2cc(Cl)ccc21)CO3` (single isomer, unassigned) [Example 100605], for which the IC50 in assay [1] (setting [5]) was 7950 nM; in assay [2] (setting [6]), 3.25 nM.
For `COC[C@]1(OC)CCC[C@H](C)[C@@H](C)S(=O)(=O)NC(=O)c2ccc3c(c2)N(C[C@@H]2CC[C@H]21)C[C@@]1(CCCc2cc(Cl)ccc21)CO3` [Example 100189, (1S,3′R,6′R,7′S,11′S,12′R)-6-chloro-7′-methoxy-7′-(methoxymethyl)-11′,12′-dimethyl-3,4-dihydro-2H,15′H-spiro[naphthalene-1,22′-[20]oxa[13]thia[1,14]diazatetracyclo [14.7.2.0~3,6~.0~19,24~]pentacosa[16,18,24]trien]-15′-one 13′,13′-dioxide] the same measures were 701 nM and 0.82 nM.
With `CO[C@@]1(CN2CCN(Cc3ncccn3)CC2)/C=C/C[C@H](C)[C@@H](C)S(=O)(=O)NC(=O)c2ccc3c(c2)N(C[C@@H]2CC[C@H]21)C[C@@]1(CCCc2cc(Cl)ccc21)CO3` [Example 338, (1S,3′R,6′R,7′S,8′E,11′S,12′R)-6-chloro-7′-methoxy-11′,12′-dimethyl-7′-((4-(2-pyrimidinylmethyl)-1-piperazinyl)methyl)-3,4-dihydro-2H,15′H-spiro[naphthalene-1,22′-[20]oxa[13]thia[1,14]diazatetracyclo [14.7.2.0~3,6~.0~19,24~]pentacosa[8,16,18,24]tetraen]-15′-one 13′,13′-dioxide], the values for the IC50 in assay [1] (setting [3]) and in assay [2] (setting [4]) were 57 nM and 0.1 nM, respectively.

The values are drawn from US10821115B2, “Compounds that inhibit Mcl-1 protein” (priority 2017, dated 2020).
